In test [1] the target is Protein arginine N-methyltransferase 3 (Homo sapiens, UniProt O60678). Nature of the test: Inhibition of human PRMT3 using H4-21peptide as substrate at 10 uM incubated for 10 mins by fluorescence based analysis relative to control.
The target of test [2] is Protein arginine N-methyltransferase 8 (Homo sapiens, UniProt Q9NR22). Nature of the test: Inhibition of human PRMT8 using Histone H4 as substrate and SAM as cofactor at 10 uM by radiometric HotSpot assay relative to control.
Sequence of Protein arginine N-methyltransferase 8 (Q9NR22 2-394 limits assumed): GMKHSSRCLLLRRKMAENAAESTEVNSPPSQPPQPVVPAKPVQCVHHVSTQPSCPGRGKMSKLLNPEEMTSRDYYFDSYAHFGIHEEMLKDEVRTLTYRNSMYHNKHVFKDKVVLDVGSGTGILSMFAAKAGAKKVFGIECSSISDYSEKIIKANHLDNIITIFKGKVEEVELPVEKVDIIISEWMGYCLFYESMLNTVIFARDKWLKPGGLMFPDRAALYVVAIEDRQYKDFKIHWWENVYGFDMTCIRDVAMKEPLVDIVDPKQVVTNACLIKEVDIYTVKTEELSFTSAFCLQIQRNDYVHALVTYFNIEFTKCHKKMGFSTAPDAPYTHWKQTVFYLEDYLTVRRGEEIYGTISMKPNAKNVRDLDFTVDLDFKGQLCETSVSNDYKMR
Test [3] addresses T1, Histone-arginine methyltransferase CARM1 (Homo sapiens) (UniProt Q86X55).
T1 sequence (whole entry): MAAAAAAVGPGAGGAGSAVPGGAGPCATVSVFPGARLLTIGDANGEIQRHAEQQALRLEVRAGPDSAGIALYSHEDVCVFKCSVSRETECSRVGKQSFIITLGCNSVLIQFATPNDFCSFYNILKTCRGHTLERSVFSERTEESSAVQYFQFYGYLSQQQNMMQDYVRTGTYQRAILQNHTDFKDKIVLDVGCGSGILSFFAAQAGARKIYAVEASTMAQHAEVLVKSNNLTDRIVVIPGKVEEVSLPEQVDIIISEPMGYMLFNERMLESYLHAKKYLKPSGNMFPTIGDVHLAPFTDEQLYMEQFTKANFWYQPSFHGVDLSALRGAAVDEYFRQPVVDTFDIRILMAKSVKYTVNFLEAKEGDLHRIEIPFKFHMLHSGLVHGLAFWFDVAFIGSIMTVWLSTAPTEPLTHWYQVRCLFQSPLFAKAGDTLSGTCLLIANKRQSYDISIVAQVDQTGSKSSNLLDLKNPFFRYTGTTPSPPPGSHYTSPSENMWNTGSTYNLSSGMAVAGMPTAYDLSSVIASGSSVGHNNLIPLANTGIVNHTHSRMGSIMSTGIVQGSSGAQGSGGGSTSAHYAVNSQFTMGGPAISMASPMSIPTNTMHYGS
Nature of the test: Inhibition of human PRMT4 using histone H3 as substrate and SAM as cofactor at 10 uM by radiometric HotSpot assay relative to control.

The target of test [4] is Protein arginine N-methyltransferase 1 (Homo sapiens, UniProt Q99873). Nature of the test: Inhibition of human PRMT1 using H4-21peptide as substrate at 10 uM incubated for 10 mins by fluorescence based analysis relative to control.
Sequence of Protein arginine N-methyltransferase 1 (Q99873 whole entry, looked up): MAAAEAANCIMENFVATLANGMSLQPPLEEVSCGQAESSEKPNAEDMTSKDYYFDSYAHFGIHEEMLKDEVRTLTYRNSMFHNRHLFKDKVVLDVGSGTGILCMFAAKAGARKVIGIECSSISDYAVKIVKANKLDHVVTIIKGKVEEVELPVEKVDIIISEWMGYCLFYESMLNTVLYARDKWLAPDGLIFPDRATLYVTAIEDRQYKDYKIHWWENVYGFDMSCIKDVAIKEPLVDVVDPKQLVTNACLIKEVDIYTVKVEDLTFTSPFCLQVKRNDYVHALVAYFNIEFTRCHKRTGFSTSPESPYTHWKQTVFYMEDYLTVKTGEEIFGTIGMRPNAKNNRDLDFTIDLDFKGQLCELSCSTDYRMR
Test [5] has as its target Protein arginine N-methyltransferase 6 (Homo sapiens, UniProt Q96LA8). Nature of the test: Inhibition of human PRMT6 using GST-GAR as substrate and SAM as cofactor at 10 uM by radiometric HotSpot assay relative to control.

What is called inhibition is how much of the control response was suppressed.

The source made the active and inactive calls. No cut-off for these calls is given here.

Sequence of Protein arginine N-methyltransferase 6 (Q96LA8 whole entry, looked up): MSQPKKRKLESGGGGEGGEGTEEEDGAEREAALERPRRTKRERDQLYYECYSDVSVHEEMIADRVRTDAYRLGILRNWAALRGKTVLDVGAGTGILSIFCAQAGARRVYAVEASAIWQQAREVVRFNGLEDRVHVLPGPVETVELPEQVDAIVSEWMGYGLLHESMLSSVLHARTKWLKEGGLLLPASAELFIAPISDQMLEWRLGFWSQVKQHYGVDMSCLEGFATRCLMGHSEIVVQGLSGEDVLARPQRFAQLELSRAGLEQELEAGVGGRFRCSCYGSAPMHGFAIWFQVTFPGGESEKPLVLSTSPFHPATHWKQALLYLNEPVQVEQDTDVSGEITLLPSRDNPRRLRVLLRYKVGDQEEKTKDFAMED
Sequence of Protein arginine N-methyltransferase 3 (O60678 2-531 limits assumed): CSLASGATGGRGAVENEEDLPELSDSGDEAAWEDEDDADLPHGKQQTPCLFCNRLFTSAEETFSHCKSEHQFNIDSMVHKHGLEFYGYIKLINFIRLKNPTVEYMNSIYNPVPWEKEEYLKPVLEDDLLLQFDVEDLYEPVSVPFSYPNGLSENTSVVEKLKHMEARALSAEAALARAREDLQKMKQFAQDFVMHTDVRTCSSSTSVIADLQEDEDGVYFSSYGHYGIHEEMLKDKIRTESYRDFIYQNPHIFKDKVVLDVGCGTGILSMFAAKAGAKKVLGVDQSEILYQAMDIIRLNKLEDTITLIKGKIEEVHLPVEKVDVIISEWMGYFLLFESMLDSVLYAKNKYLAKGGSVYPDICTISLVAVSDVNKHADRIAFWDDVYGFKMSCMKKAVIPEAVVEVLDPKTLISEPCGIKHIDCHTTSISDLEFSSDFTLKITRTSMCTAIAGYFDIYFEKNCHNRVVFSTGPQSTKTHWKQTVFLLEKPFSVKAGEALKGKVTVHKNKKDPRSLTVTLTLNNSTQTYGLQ

On to `Nc1ncnc2c1ncn2[C@@H]1O[C@H](CSCCCNC(=O)NCc2ccccc2)[C@@H](O)[C@H]1O`, for which the inhibition in test [1] was 3%; in test [2] it was less than 30%; in test [3] it was 27%; in test [4] it was less than 50%.

On to `N=C(NCCCSC[C@H]1O[C@@H](n2cnc3c(N)ncnc32)[C@H](O)[C@@H]1O)Nc1ccccc1`, for which the inhibition is more than 95% in test [2], more than 90% in test [3], more than 50% in test [4] and more than 90% in test [5].

In the case of `Nc1ncnc2c1ncn2[C@@H]1O[C@H](CSCCNC(=O)NCc2ccc3cnccc3c2)[C@@H](O)[C@H]1O`, the inhibition in test [1] was 3%; in test [2], less than 30%; in test [3], 27%; in test [4], less than 50%.

`Nc1ncnc2c1ncn2[C@@H]1O[C@H](CSCCNC(=O)Nc2ccccc2)[C@@H](O)[C@H]1O`: the inhibition in test [1] was more than 50%; in test [2], less than 30%; in test [3] it was 27%; in test [4], less than 50%.

In the case of `CCNC(=O)NCCSC[C@H]1O[C@@H](n2cnc3c(N)ncnc32)[C@H](O)[C@@H]1O`, the inhibition in test [1] is 3%; in test [2] it was less than 30%; in test [3] it was 27%; in test [4], less than 50%.

As for `N=C(NCCCSC[C@H]1O[C@@H](n2cnc3c(N)ncnc32)[C@H](O)[C@@H]1O)Nc1cccc(-c2cccnc2)c1`, the inhibition is more than 95% in test [2], more than 90% in test [3], more than 50% in test [4] and more than 90% in test [5].

With `N=C(NCCCSC[C@H]1O[C@@H](n2cnc3c(N)ncnc32)[C@H](O)[C@@H]1O)NCc1ccccc1`, the inhibition in test [2] is more than 95%; in test [3] it was more than 90%; in test [4], more than 50%; in test [5], more than 90%.

`Nc1ncnc2c1ncn2[C@@H]1O[C@H](CSCCNC(=O)NCCc2ccccc2)[C@@H](O)[C@H]1O`: the inhibition in test [1] is 3%; in test [2] it was less than 30%; in test [3] it was 27%; in test [4], less than 50%.

With `N=C(NCCSC[C@H]1O[C@@H](n2cnc3c(N)ncnc32)[C@H](O)[C@@H]1O)NCc1ccccc1`, the inhibition in test [2] is more than 95%; in test [3] it was more than 90%; in test [4], more than 50%; in test [5] it was more than 90%.

Take `Nc1ncnc2c1ncn2[C@@H]1O[C@H](CSCCNC(=O)NCc2ccc(-c3cc[nH]n3)cc2)[C@@H](O)[C@H]1O`: the inhibition in test [1] was 3%; in test [2] it was less than 30%; in test [3] it was 27%; in test [4] it was less than 50%.

`N=C(NCCCSC[C@H]1O[C@@H](n2cnc3c(N)ncnc32)[C@H](O)[C@@H]1O)Nc1cccc(-c2ccc3c(c2)OCCO3)c1`: the inhibition was more than 95% in test [2], more than 90% in test [3], more than 50% in test [4] and more than 90% in test [5].

On to `N=C(NCCCSC[C@H]1O[C@@H](n2cnc3c(N)ncnc32)[C@H](O)[C@@H]1O)Nc1cccc(Br)c1`, for which the inhibition is more than 95% in test [2], more than 90% in test [3], more than 50% in test [4] and more than 90% in test [5].

As to `Nc1ncnc2c1ncn2[C@@H]1O[C@H](CSCCNC(=O)Nc2ccc(F)cc2)[C@@H](O)[C@H]1O`, the inhibition in test [1] was more than 50%; in test [2], less than 30%; in test [3], 27%; in test [4], less than 50%.

Consider `Nc1ncnc2c1ncn2[C@@H]1O[C@H](CSCCNC(=O)Nc2cccc3ccccc23)[C@@H](O)[C@H]1O`, for which the inhibition is 3% in test [1], less than 30% in test [2], 27% in test [3] and less than 50% in test [4].

Regarding `Nc1ncnc2c1ncn2[C@@H]1O[C@H](CSCCNC(=O)NC2CCCCC2)[C@@H](O)[C@H]1O`, the inhibition in test [1] was 3%; in test [2], less than 30%; in test [3], 27%; in test [4], less than 50%.

`COc1cc2nc(-c3ccoc3)nc(NCCSC[C@H]3O[C@@H](n4cnc5c(N)ncnc54)[C@H](O)[C@@H]3O)c2cc1OC`: the inhibition in test [1] is less than 30%; in test [2], less than 50%. Besides, in test [4], the inhibition entry is “inactive”.

With `Nc1ncnc2c1ncn2[C@@H]1O[C@H](CSCCNC(=O)NCc2ccc(F)cc2)[C@@H](O)[C@H]1O`, the inhibition in test [1] is more than 50%; in test [2], less than 30%; in test [3] it was more than 90%; in test [4] it was less than 50%.

For the compound `COc1cc2nc(-c3cccc([N+](=O)[O-])c3)nc(NCCSC[C@H]3O[C@@H](n4cnc5c(N)ncnc54)[C@H](O)[C@@H]3O)c2cc1OC`, the inhibition in test [1] was less than 30%; in test [2], less than 50%. Besides, the inhibition entry in test [4] was “inactive”.

On to `COc1cc2nc(-c3cccc(O)c3)nc(NCCSC[C@H]3O[C@@H](n4cnc5c(N)ncnc54)[C@H](O)[C@@H]3O)c2cc1OC`, for which the inhibition in test [1] is less than 30%; in test [2] it was less than 50%. Also, the inhibition entry in test [4] was “inactive”.

In the case of `COc1cc2nc(-c3ccccc3O)nc(NCCSC[C@H]3O[C@@H](n4cnc5c(N)ncnc54)[C@H](O)[C@@H]3O)c2cc1OC`, the inhibition is less than 30% in test [1] and less than 50% in test [2]. Further, in test [4], the inhibition entry was “inactive”.

For the compound `Nc1ncnc2c1ncn2[C@@H]1O[C@H](CSCCCNC(=O)NCCc2ccccc2)[C@@H](O)[C@H]1O`, the inhibition in test [1] was 3%; in test [2], less than 30%; in test [3], 27%; in test [4], less than 50%.

For the compound `Nc1ncnc2c1ncn2[C@@H]1O[C@H](CSCCNC(=O)NCc2ccc(-c3cn[nH]c3)cc2)[C@@H](O)[C@H]1O`, the inhibition in test [1] was 3%; in test [2], less than 30%; in test [3], 27%; in test [4] it was less than 50%.

Consider `COc1cc2nc(-c3ccc(F)c(O)c3)nc(NCCSC[C@H]3O[C@@H](n4cnc5c(N)ncnc54)[C@H](O)[C@@H]3O)c2cc1OC`, for which the inhibition was less than 30% in test [1] and less than 50% in test [2]. In addition, the inhibition entry in test [4] was “inactive”.

For the compound `Nc1ncnc2c1ncn2[C@@H]1O[C@H](CSCCNC(=O)NCc2ccc(-c3ccccc3O)cc2)[C@@H](O)[C@H]1O`, the inhibition was 3% in test [1], less than 30% in test [2], 27% in test [3] and less than 50% in test [4].

Regarding `Nc1ncnc2c1ncn2[C@@H]1O[C@H](CSCCNC(=O)NCCCc2ccccc2)[C@@H](O)[C@H]1O`, the inhibition in test [1] was 3%; in test [2], less than 30%; in test [3], 27%; in test [4] it was less than 50%.

Consider `Nc1ncnc2c1ncn2[C@@H]1O[C@H](CSCCNC(=O)NCc2ccccc2Br)[C@@H](O)[C@H]1O`, for which the inhibition in test [1] is 3%; in test [2] it was less than 30%; in test [3], more than 90%; in test [4] it was less than 50%.

As to `COc1cc2nc(-c3cccc(F)c3)nc(NCCSC[C@H]3O[C@@H](n4cnc5c(N)ncnc54)[C@H](O)[C@@H]3O)c2cc1OC`, the inhibition was less than 30% in test [1] and less than 50% in test [2]. Further, in test [4], the inhibition result is “inactive”.

On to `Nc1ncnc2c1ncn2[C@@H]1O[C@H](CSCCNC(=O)Nc2ccc(Cl)cc2)[C@@H](O)[C@H]1O`, for which the inhibition is 3% in test [1], less than 30% in test [2], 27% in test [3] and less than 50% in test [4].

Turning to `Nc1ncnc2c1ncn2[C@@H]1O[C@H](CSCCCNC(=O)NCc2ccc(F)cc2)[C@@H](O)[C@H]1O`, the inhibition was 3% in test [1], less than 30% in test [2], 27% in test [3] and less than 50% in test [4].

Consider `Nc1ncnc2c1ncn2[C@@H]1O[C@H](CSCCNC(=O)Nc2ccccc2Br)[C@@H](O)[C@H]1O`, for which the inhibition was more than 50% in test [1], less than 30% in test [2], 27% in test [3] and less than 50% in test [4].

With `Nc1ncnc2c1ncn2[C@@H]1O[C@H](CSCCCNC(=O)NCCCc2ccccc2)[C@@H](O)[C@H]1O`, the inhibition is 3% in test [1], less than 30% in test [2], 27% in test [3] and less than 50% in test [4].

Take `COc1cc2nc(-c3ccc(C(F)(F)F)cc3)nc(NCCSC[C@H]3O[C@@H](n4cnc5c(N)ncnc54)[C@H](O)[C@@H]3O)c2cc1OC`: the inhibition in test [1] is less than 30%; in test [2] it was less than 50%. In addition, the inhibition result in test [4] is “inactive”.

Take `COc1cc2nc(-c3ccc(N)cc3)nc(NCCSC[C@H]3O[C@@H](n4cnc5c(N)ncnc54)[C@H](O)[C@@H]3O)c2cc1OC`: the inhibition in test [1] was less than 30%; in test [2], less than 50%. Moreover, the inhibition entry in test [4] is “inactive”.
